Assay [1] relates to chorioallantoic membrane tissue of an embryonated chicken egg. Kind of assay: Modified CAM assay, fluorescent vascular density (FVD) by laser confocal microscopy after FITC-Dextran injection. Conditions: for FVD: individual eggs. Set-up: FVD Group Mean / FVD: scale not given here. The assay is classed as in vivo. How it is done: Eighteen 10-day-old embryonated chicken eggs were obtained. A window was made in the shell of each egg. The chorioallantoic membranes were dropped to allow placement of a filter paper disc saturated with either basic fibroblast growth factor (bFGF) (1 μg/ml), as an angiogenic stimulator, or with a control solution (Clonetics EBM-2 media, Bio-Whittaker, Walersville, Md.). Twenty-four hours were allowed to elapse and a vessel was cannulated in each egg. Embryos that had received a filter disc saturated with bFGF then received a systemic injection of either Fumagillin (5 μg/egg, Calbiochem, San Diego, Calif.) in 0.1% dimethyl sulfoxide (DMSO) (Group A, n=3), or an injection of 0.1% DMSO carrier alone (Group B, n=5). Fumagillin is an organic compound with established antiangiogenic effects (see, e.g., Ingber et al., Nature, 348:555-557 (1990)). Embryos that had received a filter disc saturated with the control molecule received 0. 1% DMSO carrier injected systemically (Group C, n=10).
Forty-eight hours were allowed to elapse, and all eggs then received a systemic injection of fluorescein isothiocyanate (FITC)-Dextran (1 mg/ml), which was allowed to circulate for 30 minutes. Filter discs and associated CAM tissue (i.e., the region of interest) were excised from the egg and preserved in 10% formalin. The filter disc and region of interest were then laid out on a glass microscope slide and viewed using a laser confocal microscope (LSM 510 Laser Scanning Microscope, Carl Zeiss, Inc., Thronwood, N.Y.). The filter disc and region of interest were stimulated with an argon laser emitting at a wavelength of 488 nm. The resultant excitation was read using fluorescence filters at wavelengths of 505 nm and greater. The image was captured using LSM 5 Pascal software (Carl Zeiss, Inc.), through a microscope objective of 1.25×. The capture image data was formatted as 1024 pixels wide by 1024 pixels long, resulting in an overall image of 1,048,576 pixels, each with a brightness measured on a scale from 0 to 255. Multiple cross-sectional images were taken along a three-dimensional z-axis at 200 micron intervals through each filter disc and region of interest from each egg. Each filter disc and region of interest was thereby determined to have a fluorescent vascular density reflective of the density of vasculature of the CAM tissue associated with the filter disc. One filter disc in Group C was eliminated from analysis owing to gross extravasation of fluorescein, rendering it unreadable (represented by “-” in Table 1).

For assay [2], the system named is endothelial cell proliferation in the CAM. Kind of assay: CAM-XTT cell proliferation assay, spectrophotometrical absorbance. The assay is classed as in vivo, chicken. Conditions: FGF 2.0 μg/mL disc; systemic 100 μM Fumagillin or 3 mg/mL LM609; relative to FGF + 0.1% DMSO carrier. How it is done: Ten 10-day old eggs were divided into four groups and prepared as in Example 1. The eggs received (A) filter disks saturated with a vehicle solution (0.1% bovine serum albumin (BSA)/phosphate-buffered saline (PBS)) and systemic injection of a carrier solution (0.1% DMSO), (B) filter disks saturated with a stimulator solution (2.0 μg/mL FGF) and systemic injection of carrier solution (0.1% DMSO), (C) filter disks saturated with a stimulator solution (2.0 μg/mL FGF) and systemic injection of an inhibitor (100 μM Fumagillin), or (D) filter disks saturated with a stimulator solution (2.0 μg/mL FGF) and systemic injection of an inhibitor (3 mg/mL LM609). […]
XTT is a tetrazolium salt, which is reduced within the mitochondria of metabolically active cells to form a colored formazan dye. The amount of formazan dye produced is quantitatively measured by spectrophotometrical absorbance (e.g., by an ELISA plate reader) at 450-500 nm. […]
5 mL of XTT labeling reagent and 0.1 mL electron coupling reagent were mixed together and 30 μL of the mixture was applied onto the CAM disk via pipette. […] At Day 13, the disks were harvested for light photomicroscopy and the mean spectrophotometrical absorbance at 450 nm was measured (reference wavelength 620 nm (Titertek Multiskan Ascent Plate Reader)).

Assay [3] concerns filter discs and associated CAM tissue. Nature of the assay: CAM assay scored from light microscopic photographs by blinded observers. The assay is classed as in vivo, chicken. Set-up: scale not given here. Conditions: for Score: individual discs. As for the experimental part:
However, instead of using laser confocal microscopy to determine an FVD value for a test region of interest, the filter discs and associated CAM tissue were photographed under light microscopy. The light microscopic photographs were evaluated independently by three blinded observers, all experts in the study of angiogenesis. […] If the blinded observer felt that a disc had too much hemorrhage or artifact to make an accurate assessment of angiogenesis, it was eliminated from that observer's assessment (represented by a “-” in Tables 2-4).

Setting [4] is: Table 2, one blinded observer, Group A: bFGF disc + Fumagillin 5 μg/egg.
[5] abbreviates: Table 3, one blinded observer, Group A: bFGF disc + Fumagillin 5 μg/egg.
The mark [6] stands for this setting: Table 4, one blinded observer, Group A: bFGF disc + Fumagillin 5 μg/egg.
[7] abbreviates: Table 2, one blinded observer, Group B: bFGF disc + 0.1% DMSO carrier.
Where [8] appears, read: Table 3, one blinded observer, Group B: bFGF disc + 0.1% DMSO carrier.
The mark [9] stands for this setting: Table 4, one blinded observer, Group B: bFGF disc + 0.1% DMSO carrier.

“And” between values parts separate entries of the source, which are not always exact repeats. Equal values may be shown once.

As to `CO[C@@H]1[C@H](OC(=O)/C=C/C=C/C=C/C=C/C(=O)O)CC[C@]2(CO2)[C@H]1[C@@]1(C)O[C@@H]1CC=C(C)C` [Fumagillin], the FVD in assay [1] (Treatment Group A: bFGF (1 μg/ml) filter disc, systemic Fumagillin 5 μg/egg in 0.1% DMSO, 48 h) is 0.0673 and 0.0533 and 1.5029. Besides, the “FVD Group Mean” value in assay [1] (Treatment Group A: bFGF (1 μg/ml) filter disc, systemic Fumagillin 5 μg/egg in 0.1% DMSO, n=3) is listed as 0.5412. Also, the “effect on fluorescent vascular density of bFGF-stimulated specimens” value in assay [1] (systemic injection, on average, relative to bFGF stimulation + control molecule (Group B)) is given as “reduce the fluorescent vascular density”. Moreover, the “effect on spectrophotometrical absorbance (450 nm) of FGF-stimulated specimens” value in assay [2] is “reduced the spectrophotometrical absorbance”. For the same compound, the figures for the “Score Group Mean” value in assay [3] (setting [4]), in assay [3] (setting [5]) and in assay [3] (setting [6]) were 2, 2.7 and 2, respectively. Besides, the Score in assay [3] (setting [4]) is 2; in assay [3] (setting [5]), 2 and 3 (2×); in assay [3] (setting [6]), 3 and 2 and 1.
With basic fibroblast growth factor [bFGF], the FVD in assay [1] (Treatment Group B: bFGF (1 μg/ml) filter disc, systemic 0.1% DMSO carrier alone) was 2.5401 and 3.7715 and 1.9767 and 0.6873 and 2.6344. Further, the “FVD Group Mean” value in assay [1] (Treatment Group B: bFGF (1 μg/ml) filter disc, systemic 0.1% DMSO carrier alone, n=5) turned out to be 2.322. The “Score Group Mean” value in assay [3] (setting [7]) was determined as 1.8; in assay [3] (setting [8]), 2.4; in assay [3] (setting [9]), 2.2. The Score in assay [3] (setting [7]) was 2 (2×) and 3 and 1 (2×); in assay [3] (setting [8]) it was 2 and 3 (3×) and 1; in assay [3] (setting [9]), 2 (2×) and 3 (2×) and 1.

For the origin of these results see US20050136006A1, “Quantitative assay of the angiogenic and antiangiogenic activity of a test molecule” (Government of the U.S.A.,represented by the Secretary, …, priority 2002, published 2005).
